Read-outs that look alike come from different tables or passages of the source.
Tests used:
Format in all cases: cell-based
[1] = target: T1, α7^L131G,Q139L,Y217F-5HT3 H163R (Homo sapiens, UniProt P36544, H163R/L131G/M226I/Q139L/T225I/Y217F); test: EC50 dose response, PSAM4-5HT3 with additional mutations; conditions: additional mutation H163R; read-out: EC50s (SEM) for additional mutations of α7^L131G, Q139L, Y217F -5HT3
T1 construct: expressed in transfected cells; host or cells: HEK 293

[2] = target: T2, α7^L131G,Q139L,Y217F-5HT3 S172I (Homo sapiens, UniProt P36544, L131G/M226I/Q139L/S172I/T225I/Y217F); test: as above; conditions: additional mutation S172I; read-out: EC50s (SEM) for additional mutations of α7^L131G, Q139L, Y217F -5HT3
T2 construct: expressed in transfected cells; host or cells: HEK 293
T2 sequence (P36544 with tags, fused parts or gaps L131G/Q139L/S172I/Y217F/T225I/M226I limits assumed): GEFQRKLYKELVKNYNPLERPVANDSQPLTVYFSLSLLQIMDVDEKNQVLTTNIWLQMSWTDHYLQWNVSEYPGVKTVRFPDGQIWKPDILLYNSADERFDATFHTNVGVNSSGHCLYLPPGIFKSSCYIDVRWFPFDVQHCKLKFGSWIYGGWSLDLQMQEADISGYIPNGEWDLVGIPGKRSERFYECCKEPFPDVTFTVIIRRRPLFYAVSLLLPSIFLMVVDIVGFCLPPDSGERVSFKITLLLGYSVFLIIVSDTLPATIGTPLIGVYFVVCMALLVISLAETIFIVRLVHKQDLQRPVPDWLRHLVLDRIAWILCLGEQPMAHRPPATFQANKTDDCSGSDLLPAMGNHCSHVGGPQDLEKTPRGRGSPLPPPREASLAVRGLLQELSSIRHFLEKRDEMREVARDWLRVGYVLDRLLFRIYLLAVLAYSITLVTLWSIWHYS

[3] = target: T3, α7^L131G,Q139L,Y217F-5HT3 S172A (Homo sapiens, UniProt P36544, L131G/M226I/Q139L/S172A/T225I/Y217F); test: as above; conditions: additional mutation S172A; read-out: EC50s (SEM) for additional mutations of α7^L131G, Q139L, Y217F -5HT3
T3 construct: expressed in transfected cells; host or cells: HEK 293
T3 sequence (P36544 with tags, fused parts or gaps L131G/Q139L/S172A/Y217F/T225I/M226I limits assumed): as the sequence (P36544 with tags, fused parts or gaps L131G/Q139L/S172I/Y217F/T225I/M226I limits assumed) above, with I150A counted along it

[4] = target: T4, α7-5HT3 L131G, Q139L, W171F (Homo sapiens, UniProt P36544, L131G/M226I/Q139L/T225I/W171F); test: EC50 dose response, α7-5HT3 mutant; conditions: read-out: EC50s (SEM) for additional mutations of α7^L131G, Q139L, Y217F -5HT3
T4 construct: expressed in transfected cells; host or cells: HEK 293
T4 sequence (P36544 with tags, fused parts or gaps L131G/Q139L/W171F/T225I/M226I limits assumed): as the sequence (P36544 with tags, fused parts or gaps L131G/Q139L/S172I/Y217F/T225I/M226I limits assumed) above, with W149F, I150S, F195Y counted along it

[5] = target: T5, α7^L131G,Q139L,Y217F-5HT3 H163D (Homo sapiens, UniProt P36544, H163D/L131G/M226I/Q139L/T225I/Y217F); test: EC50 dose response, PSAM4-5HT3 with additional mutations; conditions: additional mutation H163D; read-out: EC50s (SEM) for additional mutations of α7^L131G, Q139L, Y217F -5HT3
T5 construct: expressed in transfected cells; host or cells: HEK 293

[6] = target: T6, α7^L131G,Q139L,Y217F-5HT3 V154I, R155Y, W156N, S172A (Homo sapiens, UniProt P36544, L131G/M226I/Q139L/R155Y/S172A/T225I/V154I/W156N/Y217F); test: as above; conditions: read-out: EC50s (SEM) for additional mutations of α7^L131G, Q139L, Y217F -5HT3
T6 construct: expressed in transfected cells; host or cells: HEK 293
T6 sequence (P36544 with tags, fused parts or gaps L131G/Q139L/V154I/R155Y/W156N/S172A/Y217F/T225I/M226I limits assumed): as the sequence (P36544 with tags, fused parts or gaps L131G/Q139L/S172I/Y217F/T225I/M226I limits assumed) above, with V132I, R133Y, W134N, I150A counted along it

[7] = target: T7, α7^L131G,Q139L,Y217F-5HT3 H163K (Homo sapiens, UniProt P36544, H163K/L131G/M226I/Q139L/T225I/Y217F); test: as above; conditions: additional mutation H163K; read-out: EC50s (SEM) for additional mutations of α7^L131G, Q139L, Y217F -5HT3
T7 construct: expressed in transfected cells; host or cells: HEK 293

[8] = target: T8, α7-5HT3 L131G, Q139L, Y217V (Homo sapiens, UniProt P36544, L131G/M226I/Q139L/T225I/Y217V); test: EC50 dose response, α7-5HT3 mutant; conditions: read-out: EC50s (SEM) for additional mutations of α7^L131G, Q139L, Y217F -5HT3
T8 construct: 5HT3 ion pore domain (fusion partner); expressed in transfected cells; HEK 293 is named only for the electrophysiology

[9] = target: T9, α7^L131G,Q139L,Y217F-5HT3 H163S (Homo sapiens, UniProt P36544, H163S/L131G/M226I/Q139L/T225I/Y217F); test: EC50 dose response, PSAM4-5HT3 with additional mutations; conditions: additional mutation H163S; read-out: EC50s (SEM) for additional mutations of α7^L131G, Q139L, Y217F -5HT3
T9 construct: expressed in transfected cells; host or cells: HEK 293
T9 sequence (P36544 with tags, fused parts or gaps L131G/Q139L/H163S/Y217F/T225I/M226I limits assumed): as the sequence (P36544 with tags, fused parts or gaps L131G/Q139L/S172I/Y217F/T225I/M226I limits assumed) above, with H141S, I150S counted along it

[10] = target: T10, α7^L131G,Q139L,Y217F-5HT3 H163T (Homo sapiens, UniProt P36544, H163T/L131G/M226I/Q139L/T225I/Y217F); test: as above; conditions: additional mutation H163T; read-out: EC50s (SEM) for additional mutations of α7^L131G, Q139L, Y217F -5HT3
T10 construct: expressed in transfected cells; host or cells: HEK 293

[11] = target: T11, α7^L131G,Q139L,Y217F-5HT3 H163T, S172V (Homo sapiens, UniProt P36544, H163T/L131G/M226I/Q139L/S172V/T225I/Y217F); test: as above; conditions: read-out: EC50s (SEM) for additional mutations of α7^L131G, Q139L, Y217F -5HT3
T11 construct: expressed in transfected cells; host or cells: HEK 293
T11 sequence (P36544 with tags, fused parts or gaps L131G/Q139L/H163T/S172V/Y217F/T225I/M226I limits assumed): as the sequence (P36544 with tags, fused parts or gaps L131G/Q139L/S172I/Y217F/T225I/M226I limits assumed) above, with H141T, I150V counted along it

[12] = target: T12, α7^L131G,Q139L,Y217F-5HT3 H163T, S172A (Homo sapiens, UniProt P36544, H163T/L131G/M226I/Q139L/S172A/T225I/Y217F); test: as above; conditions: read-out: EC50s (SEM) for additional mutations of α7^L131G, Q139L, Y217F -5HT3
T12 construct: expressed in transfected cells; host or cells: HEK 293

[13] = target: T13, α7^L131G,Q139L,Y217F-5HT3 H163V (Homo sapiens, UniProt P36544, H163V/L131G/M226I/Q139L/T225I/Y217F); test: as above; conditions: additional mutation H163V; read-out: EC50s (SEM) for additional mutations of α7^L131G, Q139L, Y217F -5HT3
T13 construct: expressed in transfected cells; host or cells: HEK 293
T13 sequence (P36544 with tags, fused parts or gaps L131G/Q139L/H163V/Y217F/T225I/M226I limits assumed): as the sequence (P36544 with tags, fused parts or gaps L131G/Q139L/S172I/Y217F/T225I/M226I limits assumed) above, with H141V, I150S counted along it

[14] = target: T14, α7^L131G,Q139L,Y217F-5HT3 V154I, R155Y, W156N (Homo sapiens, UniProt P36544, L131G/M226I/Q139L/R155Y/T225I/V154I/W156N/Y217F); test: as above; conditions: read-out: EC50s (SEM) for additional mutations of α7^L131G, Q139L, Y217F -5HT3
T14 construct: expressed in transfected cells; host or cells: HEK 293

[15] = target: T15, α7^L131G,Q139L,Y217F-5HT3 W156N (Homo sapiens, UniProt P36544, L131G/M226I/Q139L/T225I/W156N/Y217F); test: cell-based; conditions: additional mutation W156N; read-out: EC50s (SEM) for additional mutations of α7^L131G, Q139L, Y217F -5HT3
T15 construct: expressed in transfected cells; host or cells: HEK 293
T15 sequence (P36544 with tags, fused parts or gaps L131G/Q139L/W156N/Y217F/T225I/M226I limits assumed): as the sequence (P36544 with tags, fused parts or gaps L131G/Q139L/S172I/Y217F/T225I/M226I limits assumed) above, with W134N, I150S counted along it

[16] = target: T16, α7-5HT3 L131G, Q139L, Y217H (Homo sapiens, UniProt P36544, L131G/M226I/Q139L/T225I/Y217H); test: EC50 dose response, α7-5HT3 mutant; conditions: read-out: EC50s (SEM) for additional mutations of α7^L131G, Q139L, Y217F -5HT3
T16 construct: expressed in transfected cells; host or cells: HEK 293

[17] = target: T17, α7-5HT3 L131G, Q139L, Y217N (Homo sapiens, UniProt P36544, L131G/M226I/Q139L/T225I/Y217N); test: EC50 dose response, α7-5HT3 mutant; conditions: read-out: EC50s (SEM) for additional mutations of α7^L131G, Q139L, Y217F -5HT3
T17 construct: 5HT3 ion pore domain (fusion partner); expressed in transfected cells

[18] = target: T18, α7^L131G,Q139L,Y217F-5HT3 V154L, R155Y, W156Q (Homo sapiens, UniProt P36544, L131G/M226I/Q139L/R155Y/T225I/V154L/W156Q/Y217F); test: EC50 dose response, PSAM4-5HT3 with additional mutations; conditions: read-out: EC50s (SEM) for additional mutations of α7^L131G, Q139L, Y217F -5HT3
T18 construct: expressed in transfected cells; host or cells: HEK 293

[19] = target: T19, α7^L131G,Q139L,Y217F-5HT3 H163F (Homo sapiens, UniProt P36544, H163F/L131G/M226I/Q139L/T225I/Y217F); test: as above; conditions: additional mutation H163F; read-out: EC50s (SEM) for additional mutations of α7^L131G, Q139L, Y217F -5HT3
T19 construct: expressed in transfected cells; host or cells: HEK 293

[20] = target: T20, α7^L131G,Q139L,Y217F-5HT3 V154I, R155Y, W156N, S172V (Homo sapiens, UniProt P36544, L131G/M226I/Q139L/R155Y/S172V/T225I/V154I/W156N/Y217F); test: as above; conditions: read-out: EC50s (SEM) for additional mutations of α7^L131G, Q139L, Y217F -5HT3
T20 construct: expressed in transfected cells; host or cells: HEK 293

[21] = target: T21, PSAM4-5HT3 (α7-5HT3^L131G,Q139L,Y217F) (Homo sapiens, UniProt P36544, L131G/M226I/Q139L/T225I/Y217F); test: EC50 dose response of LGIC ligands on PSAM4-5HT3; conditions: read-out: EC50s (SEM) for additional mutations of α7^L131G, Q139L, Y217F -5HT3
T21 construct: expressed in transfected cells; host or cells: HEK 293
T21 sequence (P36544 with tags, fused parts or gaps L131G/Q139L/Y217F/T225I/M226I limits assumed): as the sequence (P36544 with tags, fused parts or gaps L131G/Q139L/S172I/Y217F/T225I/M226I limits assumed) above, with I150S counted along it

[22] = target: T22, α7-5HT3 L131G, Q139L, W171Y (Homo sapiens, UniProt P36544, L131G/M226I/Q139L/T225I/W171Y); test: EC50 dose response, α7-5HT3 mutant; conditions: read-out: EC50s (SEM) for additional mutations of α7^L131G, Q139L, Y217F -5HT3
T22 construct: expressed in transfected cells; host or cells: HEK 293

[23] = target: T23, α7^L131G,Q139L,Y217F-5HT3 W156N, H163T (Homo sapiens, UniProt P36544, H163T/L131G/M226I/Q139L/T225I/W156N/Y217F); test: EC50 dose response, PSAM4-5HT3 with additional mutations; conditions: read-out: EC50s (SEM) for additional mutations of α7^L131G, Q139L, Y217F -5HT3
T23 construct: expressed in transfected cells; host or cells: HEK 293
T23 sequence (P36544 with tags, fused parts or gaps L131G/Q139L/W156N/H163T/Y217F/T225I/M226I limits assumed): as the sequence (P36544 with tags, fused parts or gaps L131G/Q139L/S172I/Y217F/T225I/M226I limits assumed) above, with W134N, H141T, I150S counted along it

[24] = target: T24, α7^L131G,Q139L,Y217F-5HT3 S172V (Homo sapiens, UniProt P36544, L131G/M226I/Q139L/S172V/T225I/Y217F); test: as above; conditions: additional mutation S172V; read-out: EC50s (SEM) for additional mutations of α7^L131G, Q139L, Y217F -5HT3
T24 construct: expressed in transfected cells; host or cells: HEK 293

[25] = target: T25, α7-5HT3 L131G, Q139L, Y217A (Homo sapiens, UniProt P36544, L131G/M226I/Q139L/T225I/Y217A); test: EC50 dose response, α7-5HT3 mutant; conditions: read-out: EC50s (SEM) for additional mutations of α7^L131G, Q139L, Y217F -5HT3
T25 construct: expressed in transfected cells; host or cells: HEK 293

[26] = target: T26, α7^L131G,Q139L,Y217F-5HT3 H163N (Homo sapiens, UniProt P36544, H163N/L131G/M226I/Q139L/T225I/Y217F); test: EC50 dose response, PSAM4-5HT3 with additional mutations; conditions: additional mutation H163N; read-out: EC50s (SEM) for additional mutations of α7^L131G, Q139L, Y217F -5HT3
T26 construct: expressed in transfected cells; host or cells: HEK 293

[27] = target: T27, α7^L131G,Q139L,Y217F-5HT3 H163A (Homo sapiens, UniProt P36544, H163A/L131G/M226I/Q139L/T225I/Y217F); test: as above; conditions: additional mutation H163A; read-out: EC50s (SEM) for additional mutations of α7^L131G, Q139L, Y217F -5HT3
T27 construct: expressed in transfected cells; host or cells: HEK 293

T1 sequence (P36544 with tags, fused parts or gaps L131G/Q139L/H163R/Y217F/T225I/M226I limits assumed): as the sequence (P36544 with tags, fused parts or gaps L131G/Q139L/S172I/Y217F/T225I/M226I limits assumed) above, with H141R, I150S counted along it

## CCCOc1cnc2cc3c(cc2n1)C1CNCC3C1 (stereo not shown) [uPSEM 817]
[1]
  EC50: 5.5 nM
[2]
  EC50: 18 nM
[3]
  EC50: 7 nM
[4]
  EC50: > 100 nM
[5]
  EC50: 2.5 nM
[6]
  EC50: 12 nM
[7]
  EC50: 10 nM
[8]
  EC50: 24 nM
[9]
  EC50: 8.1 nM
[10]
  EC50: 12 nM
[11]
  EC50: 6.3 nM
[12]
  EC50: 7.8 nM
[13]
  EC50: 9 nM
[14]
  EC50: 13 nM
[15]
  EC50: 15 nM
[16]
  EC50: 16 nM
[17]
  EC50: > 100 nM
[18]
  EC50: 17 nM
[19]
  EC50: 8.2 nM
[20]
  EC50: 13 nM
[21]; PSAM4-5HT3 (no additional mutation)
  EC50: 4.1 nM
[21]; line L131G, Q139L, Y217F (same values as PSAM4-5HT3 line)
  EC50: 4.1 nM
[22]
  EC50: > 100 nM
[23]
  EC50: 13 nM
[24]
  EC50: 6 nM
[25]
  EC50: 9.2 nM
[26]
  EC50: 9.1 nM
[27]
  EC50: 53 nM

— patent US20250145687A1, “MODIFIED LIGAND-GATED ION CHANNELS AND METHODS OF USE” (Howard Hughes Medical Institute, priority 2022, published 2025)
